Patent publication US8133849B2, “Herbicidal compounds” (Syngenta Limited, priority 2007, dated 2012)

Tests used:
Assay type in all cases: in vivo
Amaranthus retroflexus [1] = assay: Example B1 herbicidal action, post-emergence, seed trays in climatic chamber, damage score 0-10; conditions: 1000 g/ha, evaluated after 9 days, 10=total damage to plant, 0=no damage to plant
Experimental: (§1) Seeds of a variety of test species were sown in sterilized standard soil in seed trays each having 96 cells. After cultivation for 8 to 9 days cultivation (post-emergence) under controlled conditions in a climatic chamber (cultivation at 23/17° C., day/night; 13 hours light; 50-60% humidity), the plants were treated with an aqueous spray solution of 1000 mg/l of the active ingredient dissolved in 10% DMSO (dimethyl sulfoxide, CAS RN 67-68-5) as a solvent, equivalent to 1000 g/ha. The plants were grown in the climatic chamber after application at (24/19° C., day/night; 13 hours light; 50-60% humidity) and watered twice daily. After 9 days until the test was evaluated (10=total damage to plant, 0=no damage to plant)

Nasturtium officinale = assay: as above; conditions: 1000 g/ha, evaluated after 9 days, 10=total damage to plant, 0=no damage to plant
Experimental: as §1

Stellaria media = assay: as above; conditions: 1000 g/ha, evaluated after 9 days, 10=total damage to plant, 0=no damage to plant
Experimental: as §1

Solanum nigrum [2] = assay: as above; conditions: 1000 g/ha, evaluated after 9 days, 10=total damage to plant, 0=no damage to plant
Experimental: as §1

Ipomea hederaceae = assay: Example B2 herbicidal action, post-emergence, pots in glasshouse, damage score 0-10; conditions: application post-emergence, rate 1000 g/ha, evaluated after 13 days
In short: (§2)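 Damage was assessed 13 days after a post-emergence spray given to 8-day-old pot seedlings. The spray was an aqueous solution from an acetone/water (50:50) formulation with 0.5% Tween 20. Plants grew in a glasshouse at 24/16° C, 14 h light, 65% humidity, watered twice daily.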

Amaranthus retroflexus [3] = assay: as above; conditions: application post-emergence, rate 1000 g/ha, evaluated after 13 days
In short: as §2

Setaria faberi = assay: as above; conditions: application post-emergence, rate 1000 g/ha, evaluated after 13 days
In short: as §2

Echinochloa crus-galli = assay: as above; conditions: application post-emergence, rate 1000 g/ha, evaluated after 13 days
In short: as §2

Solanum nigrum [4] = assay: as above; conditions: application post-emergence, rate 1000 g/ha, evaluated after 13 days
In short: as §2

| SMILES | damage to plant, AMARE (Amaranthus retroflexus [1]) | damage to plant, NAAOF (Nasturtium officinale) | damage to plant, STEME (Stellaria media) | damage to plant, SOLNI (Solanum nigrum [2]) | IPOHE damage score (10=total damage to plant; 0=no damage to plant) (Ipomea hederaceae) | AMARE damage score (10=total damage to plant; 0=no damage to plant) (Amaranthus retroflexus [3]) | SETFA damage score (10=total damage to plant; 0=no damage to plant) (Setaria faberi) | ECHCG damage score (10=total damage to plant; 0=no damage to plant) (Echinochloa crus-galli) | SOLNI damage score (10=total damage to plant; 0=no damage to plant) (Solanum nigrum [4]) |
| --- | --- | --- | --- | --- | --- | --- | --- | --- | --- |
| CN1c2nccnc2C(OC(=O)C(C)(C)C)=C(c2c(F)ccc(F)c2Cl)S1(=O)=O [Compound C4] | 7 | 6 | 8 | 5 |  |  |  |  |  |
| CC(C)(C)C(=O)OC1=C(c2c(F)ccc(F)c2Cl)S(=O)(=O)Nc2nccnc21 [Compound B3, 2,2-dimethyl-propionic acid-3-(2-chloro-3,6-difluoro-phenyl)-2,2-dioxo-1,2-dihydro-2-λ-6-thia-1,5,8-triaza-naphthalen-4-yl ester] | 0 | 0 | 0 | 2 |  |  |  |  |  |
| CN1c2nccnc2C(O)=C(c2c(F)ccc(F)c2Cl)S1(=O)=O [Compound D2] | 7 | 7 | 7 | 7 |  |  |  |  |  |
| COC1=C(c2cc3ccccc3nc2Cl)S(=O)(=O)N(C)c2nccnc21 [Compound C40] | 0 | 0 | 1 | 0 |  |  |  |  |  |
| CCN1c2nccnc2C(OC(=O)C(C)(C)C)=C(c2ccc(Cl)cc2Cl)S1(=O)=O [Compound C5] | 5 | 8 | 7 | 1 |  |  |  |  |  |
| CN1c2nccnc2C(O)=C(c2ccc(Cl)cc2Cl)S1(=O)=O [Compound D1] | 0 | 7 | 8 | 0 |  |  |  |  |  |
| CCN1c2nccnc2C(OC(=O)C(C)C)=C(c2ccc(Cl)cc2Cl)S1(=O)=O [Compound C6] | 0 | 8 | 8 | 7 |  |  |  |  |  |
| CN1c2nccnc2C(OC(=O)C(C)(C)C)=C(c2ccc(Cl)cc2Cl)S1(=O)=O [Compound C2] | 3 | 4 | 6 | 0 |  |  |  |  |  |
| CN1c2nccnc2C(OC(=O)C2CC2)=C(c2ccc(Cl)cc2Cl)S1(=O)=O [Compound C1] | 0 | 4 | 6 | 3 |  |  |  |  |  |
| O=S1(=O)C(c2c(F)ccc(Cl)c2Cl)=C(O)c2nccnc2N1CC(F)F [Compound D9, 3-(2,3-dichloro-6-fluoro-phenyl)-1-(2,2-difluoro-ethyl)-2,2-dioxo-1,2-dihydro-2-λ-6-thia-1,5,8-triaza-naphthalen-4-ol] |  |  |  |  | 10 | 9 | 2 | 4 | 10 |
| CSC(=O)OC1=C(c2c(Cl)ccc(Cl)c2Cl)S(=O)(=O)N(CC(F)F)c2nccnc21 [Compound C130] |  |  |  |  | 10 | 10 | 7 | 8 | 10 |
| O=C(OC1=C(c2c(Cl)cccc2C(F)(F)F)S(=O)(=O)N(CC(F)F)c2nccnc21)Sc1ccccc1 [Compound C125] |  |  |  |  | 8 | 9 | 8 | 8 | 9 |
| CC(C)C(=O)OC1=C(c2cc(C(F)(F)F)ccc2Cl)S(=O)(=O)N(C)c2nccnc21 [Compound C90] |  |  |  |  | 9 | 8 | 1 | 2 | 10 |
